Measurements as given in EP2177533A1, “Multiple N-methylated cyclic hexapeptides for treatment of neurogenic inflammation” (TU München, priority 2008, dated 2010).
Marks after values point to notes of the source that are not given here.

Columns and labels:
[1] = test system: 1% mustard oil-induced neurogenic plasma protein extravasation in the rat paw skin; assay type: in vivo; details: 100 µg/kg i.p., 10 min before induction of inflammation; rat hindpaw dorsal skin
Description: • Figure 1 provides a graphical representation of the effect of some compounds of the present invention on electrical field stimulation (EFS; 40 V, 0.1 ms, 10 Hz for 120 s; 1200 pulses)-induced calcitonin gene-related (CGRP) release from sensory fibres of the isolated rat tracheae. Each column represents the mean±s.e.m. CGRP concentration measured in the incubation medium of the prestimulated, stimulated and poststimulated 8-minute fractions of n = 5 experiments (5 x 2 tracheae/group). Analogs were added to the incubation medium (500 nM) at the beginning of the second and third fractions. *P<0.05, **P<0.01, vs. respective fraction of the control experiment (Mann-Whitney U-test). • Figure 2 provides a graphical representation of the effect of small peptide somatostatin analogs on 1% mustard oil-induced acute neurogenic plasma protein extravasation in the dorsal skin of the rat paw. Each column represents the mean±s.e.m. Evans blue accumulation per g wet skin of n = 6-10 experiments. […]
To confirm the findings of this in vitro study, a further in vivo activity test was performed: Compounds of the invention were examined on 1% mustard oil-induced neurogenic plasma protein extravasation in the rat paw skin.
Both hindlegs of the rats were acutely denervated (the sciatic and the saphenous nerves were cut 30 min before the induction of inflammation) under sodium pentobarbitone (Nembutal, 40 mg/kg i.p.) anaesthesia to avoid central reflexes. Acute neurogenic inflammation in the dorsal skin of the hindpaws was evoked by topical application of 1 % mustard oil dissolved in paraffin oil. Extravasation of plasma albumin was measured by the Evans blue leakage method. Evans blue (50 mg/kg) was injected i.v. and neurogenic inflammation was induced 10 min later. Rats were killed by exsanguination 20 min after mustard oil application. […] The amount of the accumulated Evans blue, which quantitatively correlates with the intensity of plasma extravasation, was expressed as µg dye/g wet tissue (Helyes et al., 1997; Helyes et al., 2001). […]

[2] = test system: peripheral terminals of sensory nerves of the isolated rat trachea; assay: Electrical field stimulation-induced CGRP release from sensory nerve terminals of the isolated rat trachea (RIA); details: 500 nM; for EFS-evoked increase in the outflow of CGRP: stimulated and post-stimulated fractions vs control; for CGRP release in % compared to the prestimulated fraction: total CGRP release in stimulated and poststimulated fractions together vs basal outflow, n=5, mean with spread
Description: • Figure 1 provides a graphical representation of the effect of some compounds of the present invention on electrical field stimulation (EFS; 40 V, 0.1 ms, 10 Hz for 120 s; 1200 pulses)-induced calcitonin gene-related (CGRP) release from sensory fibres of the isolated rat tracheae. Each column represents the mean±s.e.m. CGRP concentration measured in the incubation medium of the prestimulated, stimulated and poststimulated 8-minute fractions of n = 5 experiments (5 x 2 tracheae/group). Analogs were added to the incubation medium (500 nM) at the beginning of the second and third fractions. *P<0.05, **P<0.01, vs. respective fraction of the control experiment (Mann-Whitney U-test). • Figure 2 provides a graphical representation of the effect of small peptide somatostatin analogs on 1% mustard oil-induced acute neurogenic plasma protein extravasation in the dorsal skin of the rat paw. Each column represents the mean±s.e.m. Evans blue accumulation per g wet skin of n = 6-10 experiments. Analogs were injected i.p. (100 µg/kg) 10 min before the induction of the inflammation. *P<0.05 vs. solvent-treated control experiment (Mann-Whitney U-test).
The activities of the above described synthetic somatostatin analogs were determined by means of an in vitro pharmacological assay on the release of the sensory neuropeptide CGRP from the peripheral terminals of sensory nerves of the isolated rat trachea. This experimental model was established more than 10 years ago (Helyes et al. (1997) Br. J. Pharmacol. 121, 613-615; Szolcsányi et al. (1998) Br. J. Pharmacol. 123, 936-942; Szolcsányi et al. (1998) Br. J. Pharmacol. 125, 916-922; Helyes et al. (2004) Arthr. Rheum., 50, 1677-1685; Bölcskei et al. (2005) Pain 117, 368-376; Helyes et al. (2007) Am. J. Physiol. Lung Cell. Mol. Physiol. 292, L1173-81; Nemeth et al. (1998) Eur. J. Pharmacol, 347, 101-104.) and it represents a reliable and sensitive technique for the investigation of drug effects at the level of peripheral nerve endings. Electrical field stimulation parameters are used to induce CGRP release that is selective for capsaicin-sensitive afferents. Since CGRP is an important mediator of neurogenic inflammation, the effectiveness of compounds in decreasing its electrically-evoked release in vitro may be seen as an indicator for effectiveness to inhibit neurogenic inflammatory reactions in vivo.
Experiments were performed on male Wistar rats bred and kept in the Laboratory Animal Centre of the University of Pécs under standard pathogen free conditions at 24-25 °C and provided with standard rat chow and water ad libitum. The method has been described in detail elsewhere (Helyes et al. (1997) Br. J. Pharmacol. 121, 613-615; Nemeth et al. (1998) Eur. J. Pharmacol. 347, 101-104.). In brief, rats were exsanguinated in deep anesthesia (sodium thiopental, 50 mg/kg i.p.), then the whole trachea was removed and cleaned of fat and adhering connective tissues. Tracheae from two rats were placed into the same organ bath (1.8 ml) to achieve sufficient amount of peptide release and perfused (1 ml/min) with pH- (7.2) controlled oxygenized Krebs solution for 60 min (equilibration period) at 37 °C temperature. After discontinuation of the flow, the solution was changed three times for eight minutes to produce prestimulated, stimulated, poststimulated fractions. In the second 8-min period electrical field stimulation (EFS; 40 V, 0.1 ms, 10 Hz for 120 s; 1200 pulses) was performed to elicit neurotransmitter release. Concentration of CGRP was determined from 200 µL samples of the incubation medium by a selective and specific radioimmunoassay (RIA) technique as described previously in detail (Nemeth et al., 1996; Helyes et al., 1997; Nemeth et al., 1998; Nemeth et al., 1999). Peptide outflow was expressed as the released amount per wet tissue weight. Detection limit of the assay was 0.2 fmol/tube. […]

[3] = cited from earlier work
[4] = cited from earlier work; remark: listed apart in the source
[5] = cited from earlier work; remark: listed apart in the source

| Molecule | µg Evans blue/g wet tissue (mean±s.e.m.) [1] | CGRP outflow in the poststimulated fraction ([2]; poststimulated fraction) | EFS-evoked increase in the outflow of CGRP [2] | inhibitory action on CGRP outflow in the stimulated period ([2]; stimulated fraction, EFS 1200 pulses) | CGRP release in % compared to the prestimulated fraction [2] | bioavailability after oral administration [3] | stability in the blood and in the gastrointestinal tract [4] | half life in serum [5] [min] |
| --- | --- | --- | --- | --- | --- | --- | --- | --- |
| CC(C)[C@@H]1NC(=O)[C@H](CCCCN)N(C)C(=O)[C@@H](Cc2c[nH]c3ccccc23)N(C)C(=O)[C@H](Cc2ccc(O)cc2)NC(=O)[C@H](C)N(C)C(=O)[C@H](Cc2ccccc2)N(C)C1=O [MK-678-1, cyclo(-MeAla-Tyr-D-MeTrp-MeLys-Val-MePhe-)] | 90.06±10.4* µg Evans blue/g wet tissue | completely abolished | significantly inhibited | about 70% | 99,58 ± 39,89** % |  |  |  |
| CC(C)[C@@H]1NC(=O)[C@H](CCCCN)NC(=O)[C@@H](Cc2c[nH]c3ccccc23)NC(=O)[C@H](Cc2ccc(O)cc2)NC(=O)[C@H](C)N(C)C(=O)[C@H](Cc2ccccc2)NC1=O [MK-678-0, c(-MeAYwKVF-)] |  |  |  |  |  | 1-3% | quite stable |  |
| CC(C)[C@@H]1NC(=O)[C@H](CCCCN)N(C)C(=O)[C@@H](Cc2c[nH]c3ccccc23)NC(=O)[C@H](Cc2ccc(O)cc2)NC(=O)[C@H](C)N(C)C(=O)[C@H](Cc2ccccc2)NC1=O [MK-678-3, cyclo(-MeAla-Tyr-D-Trp-MeLys-Val-Phe-)] | 127.13±23.0 µg Evans blue/g wet tissue |  | significantly inhibited |  | 181,57 ± 54,17* % |  |  |  |
| CC(C)[C@@H]1NC(=O)[C@H](CCCCN)N(C)C(=O)[C@@H](Cc2c[nH]c3ccccc23)N(C)C(=O)[C@H](Cc2ccc(O)cc2)NC(=O)[C@H](C)N(C)C(=O)[C@H](Cc2ccccc2)NC1=O [MK-678-2, cyclo(-MeAla-Tyr-D-MeTrp-MeLys-Val-Phe-)] | 119.92±32.7 µg Evans blue/g wet tissue |  | significantly inhibited |  | 153,12 ± 29,72* % |  |  |  |
| Somatostatin |  |  |  |  |  |  |  | < 3 |
